The values that follow come from patent US20080306114A1, “Human G Protein-Coupled Receptor and Modulators Thereof for the Treatment of Hyperglycemia and Related Disorders” (Arena Pharmaceuticals, Inc, priority 2004, published 2008).

SMILES strings stand for the structures. pEC50: −log10 of the molar value. “Also recorded” adds a separate entry of the source.

Experiment [1] has as its system Mock transfected HEK293 cells (empty pCMV vector). The experiment can be described thus: Whole-cell cyclase Flashplate cAMP assay, Mock transfected HEK293 cells. In kind it is cell-based, human. The settings on record: serially diluted compound, 1 hour. As to the method: (§1) HEK 293 cells obtained from ATCC were used for all assays. Culture media consisted of […] of DMEM supplemented with 10% fetal bovine serum (Gibco, BRL). Cyclic AMP measurements were determined using the Adenylyl Cyclase Activation Flashplate® Assay with direct cAMP [^125I] Detection system.
(§2) HEK 293 cells (5×10^5 cells/ml) were plated in 15 cm dishes. […] Briefly, transfection mixture consisting of OptiMEM (Gibco, BRL) and FuGENE 6 reagent were mixed together and allow to incubate for 5 minutes at room temperature. Transfection reagent was added drop-wise into a separate tube containing 2 μg of endogenous human RUP43 receptor plasmid (Tranfected) or 2 μg of empty pCMV vector (Mock) and allowed to incubate for 15 minutes at room temperature. The DNA/transfection mixture was added drop-wise to each perspective plate and incubated over night in a humidified incubator maintained at 37° C., 95/5% […]. The next day, the media was replaced with normal growth media and the cells were incubated over night.
(§3) On Day 3, the cells were rinsed once with PBS and dislodged from the plate using a nonenzymatic cell-dissociation buffer (Gibco, BRL) and resuspended in assay stimulation Buffer® Perkin Elmer) at a density of 2×10^6 cell/ml for measurement of cAMP. […] At the end of the 2 hour incubation, the plate was aspirated and cAMP levels were determined using Wallac 1450 microbeta counter.
Background: cAMP levels reflect the balance of adenylyl cyclase and phosphodiesterase activity.

In experiment [2] the target is T1, endogenous human RUP43 (Homo sapiens, UniProt Q8TDU6).
T1 sequence (Q8TDU6 1-330): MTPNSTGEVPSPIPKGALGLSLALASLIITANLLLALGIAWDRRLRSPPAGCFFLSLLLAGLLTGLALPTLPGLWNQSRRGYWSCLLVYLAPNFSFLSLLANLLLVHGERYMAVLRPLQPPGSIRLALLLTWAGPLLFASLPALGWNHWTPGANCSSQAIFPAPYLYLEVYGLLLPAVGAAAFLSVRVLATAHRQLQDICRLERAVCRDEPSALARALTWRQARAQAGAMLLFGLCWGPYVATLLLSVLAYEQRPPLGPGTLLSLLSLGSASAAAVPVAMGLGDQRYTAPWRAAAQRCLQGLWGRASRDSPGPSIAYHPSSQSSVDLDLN
The experiment can be described thus: Whole-cell cyclase Flashplate cAMP assay, RUP43-transfected HEK293 cells. In kind it is cell-based. Details: expressed in transfected cells; host or cells: HEK293 cells (ATCC), transient transfection with FuGENE 6. The procedure: as §1, §2, §3

The subject of the next experiment is mouse 3T3L1 adipocytes. The experiment can be described thus: In vitro glucose uptake assay in 3T3L1 adipocytes. In kind it is cell-based. The procedure: (§4) The in vitro glucose uptake assay was carried out as described here.
(§5) KRPH buffer: 5 mM NaHPO4, pH 7.4 (Make KRPH buffer fresh each time) • 20 mM Hepes, pH 7.4 • 1 mM MgSO4 • 1 mM CaCl2 • 136 mM NaCl • 4.7 mM KCl • 1% BSA
(§6) For each well, add 1 μl containing 1 μCi [^3H]-2-DOG and 1 μl cold stock 2-DOG and 2 ml KRPH.
(§7) Use CytoB at 10 μM final to block carrier-mediated uptake. Also use this concentration at the end to stop the reaction. The stop buffer is PBS plus 10 μm CytoB (“PBS”).
(§8) 1. Starve cells for at least 2 hrs.
(§9) 2. Wash cells 2 times with KRPH buffer and add 2 mls of KRPH to the well.
(§10) 3. Treat cells with insulin and/or with test compound, or with vehicle (Control), for 20 min.
(§11) 4. After 20 min, aspirate the buffer from the well and immediately add 1 ml of KRPH buffer plus 2-DOG. For CytoB-treated cells, add CytoB 5 min before uptake assay.
5. After 4 min, aspirate the buffer from the well and add 3 mls of cold PBS. After completing the assay, wash the cells in each well 2 times with cold PBS. […]
Differentiated mouse 3T3L1 adipocytes were treated with 50 μM Compound 2 for various times, after which glucose uptake was determined according to Example 17.
Differentiated mouse 3T3L1 adipocytes were treated with (“Compound 2”) or without (“Control”) Compound 2 in serum-free medium for 3 hr. […] After treatment with insulin, glucose uptake was determined according to Example 17.

In a further experiment the test system is primary human adipocytes. The experiment in a line: In vitro glucose uptake assay in primary human adipocytes. In kind it is cell-based. The settings on record: 50 μM for 3 hr. As to the method: as §4, §5, §6, §7, §8, §9, §10, §11
(§12) 5. After 4 min, aspirate the buffer from the well and add 3 mls of cold PBS. After completing the assay, wash the cells in each well 2 times with cold PBS. Aspirate the Stop PBS completely, and then add 700 ul of 1% Triton X. Place in 37° C. incubator for 30 min.
(§13) 6. Count CPM in total lysate. Calculate CPM/well.
(§14) Subtract the CytoB value from the value obtained for each of cells treated with insulin and/or with test compound and cells treated with vehicle (Control).
Human preadipocytes (Cambrex) were differentiated into adipocytes. The differentiated primary human adipocytes were treated with or without 50 μM Compound 2 for 3 hr in serum-free medium. The human adipocytes were then washed with fresh KRPH buffer twice and treated with or without 100 nM insulin for 20 min. After treatment with or without insulin, glucose uptake was determined according to Example 17.

Another experiment has as its system rat L6 myoblast cells. The experiment can be described thus: In vitro glucose uptake assay in L6 myoblast cells. Type of experiment: cell-based. As to the method:
as §4, §5, §6, §7, §8, §9, §10, §11, §12, §13, §14
Rat skeletal muscle L6 myoblast cells were obtained from ATCC and grown in 24-well plates to confluence.
Confluent L6 cells were treated with or without various concentrations of Compound 2 in serum-free medium for 3 hr. The L6 cells were then washed twice with KRPH buffer. L6 cells which had been treated with Compound 2 were incubated with KRPH buffer for 20 min; L6 cells which had not been treated with Compound 2 were treated with 10 nM or 100 nM insulin for 20 min. After treatment with or without insulin, glucose uptake was determined according to Example 17. […] As skeletal muscle cells are responsible for 80% of glucose disposal in vivo, the results obtained indicate that RUP43 agonist is an attractive candidate for providing better glucose disposal in vivo than does insulin.
Confluent L6 myoblast cells were treated with 50 μM Compound 2 for various times. At the end of each treatment period, glucose uptake was determined according to Example 17.
Confluent rat L6 myoblast cells were treated with or without 50 μM Compound 2 for 3 hr in serum-free medium. The L6 cells were then washed twice with fresh KRPH buffer. The L6 cells were then treated with or without 100 nM insulin for 20 min. After treatment with or without insulin, glucose uptake was determined according to Example 17. […] The results further indicate that RUP43 agonist can increase insulin efficacy, thereby lowering the concentration of insulin required to achieve maximal glucose uptake. […]

The test system of experiment [3] is primary human skeletal muscle cells. The experiment in a line: In vitro glucose uptake assay in primary human skeletal muscle cells. In kind it is cell-based. As to the method:
as §4, §5, §6, §7, §8, §9, §10, §11, §12, §13, §14
Primary human skeletal muscle cells obtained from Cambrex were grown to 50% confluence and then differentiated on culture with inducing medium for 5 to 7 days. The differentiated primary human skeletal muscle cells were then transferred to growth medium for 7 to 10 days.
Differentiated human skeletal muscle cells were treated with or without various concentrations of Compound 2 in serum-free medium for 3 hr. After treatment with or without Compound 2, the cells were washed twice with fresh KRPH buffer. […] After treatment with or without insulin, glucose uptake was determined according to Example 17. […]
Differentiated human skeletal muscle cells were treated with 50 μM Compound 2 for various time periods. At the end of each treatment period, glucose uptake was determined according to Example 17.

In experiment [4] the target is T1, endogenous human RUP43. The experiment can be described thus: Melanophore assay. Type of experiment: cell-based. Details: expressed in transfected cells; host or cells: melanophores (skin cells of lower vertebrates), transfected by electroporation. From the text: Melanophores are skin cells found in lower vertebrates. They contain pigmented organelles termed melanosomes. Melanophores are able to redistribute these melanosomes along a microtubule network upon G-protein coupled receptor (GPCR) activation. The result of this pigment movement is an apparent lightening or darkening of the cells. In melanophores, the decreased levels of intracellular cAMP that result from activation of a […] receptor cause melanosomes to migrate to the center of the cell, resulting in a dramatic lightening in color. If cAMP levels are then raised, following activation of a Gs-coupled receptor, the melanosomes are re-dispersed and the cells appear dark again. The increased levels of diacylglycerol that result from activation of Gq-coupled receptors can also induce this re-dispersion. In addition, the technology is also suited to the study of certain receptor tyrosine kinases. The response of the melanophores takes place within minutes of receptor activation and results in a simple, robust color change. The response can be easily detected using a conventional absorbance microplate reader or a modest video imaging system. Unlike other skin cells, the melanophores derive from the neural crest and appear to express a full complement of signaling proteins. In particular, the cells express an extremely wide range of G-proteins and so are able to functionally express almost all GPCRs.
Melanophores can be utilized to identify compounds, including natural ligands, against GPCRs. This method can be conducted by introducing test cells of a pigment cell line capable of dispersing or aggregating their pigment in response to a specific stimulus and expressing an exogenous clone coding for the GCPR. A stimulant, e.g., melatonin, sets an initial state of pigment disposition wherein the pigment is aggregated within the test cells if activation of the GPCR induces pigment dispersion. […] The test cells are then contacted with chemical compounds, and it is determined whether the pigment disposition in the cells changed from the initial state of pigment disposition. […]

Setting [5] is: various concentrations 3 hr vs 10 nM or 100 nM insulin 20 min.

The term pEC50 denotes −log10 of the EC50, conventionally taken in molar units.

Consider `CN(C(=O)c1csc(C2CCN(C(=O)Cc3ccccc3Cl)CC2)n1)c1c2c(nn1C)CCCC2` [Compound 1, 2-{1-[2-(2-Chloro-phenyl)-acetyl]-piperidin-4-yl}-thiazole-4-carboxylicacid methyl-(2-methyl-4,5,6,7-tetrahydro-2H-indazol-3-yl)-amide], for which the “intracellular cAMP” value was “not in Mock transfected cells” in experiment [1] and “in a dose dependent manner, led to an increase in intracellular cAMP” on endogenous human RUP43 [2] (HEK293 cells transfected with endogenous human RUP43, serially diluted compound, 1 hour). For the same compound, on endogenous human RUP43 [2] (whole-cell cAMP, HEK293 transfected with endogenous human RUP43), the “agonist of RUP43 (identification)” value is given as “agonist of RUP43”.
With `O=C(Cc1ccccc1Cl)N1CCC(c2nc(C(=O)N3CCCc4ccccc43)cs2)CC1` [Compound 2, 2-(2-Chloro-phenyl)-1-{4-[4-(3,4-dihydro-2H-quinoline-1-carbonyl)-thiazol-2-yl]-piperidin-1-yl}-ethanone], the glucose uptake entry in the experiment with mouse 3T3L1 adipocytes (50 μM Compound 2 for various times, no insulin) is “stimulates glucose uptake”; in the experiment on primary human adipocytes (without insulin), “stimulates glucose uptake”; in the experiment with rat L6 myoblast cells (various concentrations for 3 hr, no insulin) it was “stimulates glucose uptake”; in experiment [3] (various concentrations for 3 hr, absence of insulin), “efficacious at stimulating glucose uptake; also recorded: stimulates glucose uptake”. Also, the insulin-stimulated glucose uptake result with mouse 3T3L1 adipocytes (compound 3 hr in serum-free medium, then various concentrations of insulin 20 min) is reported as “enhances insulin-stimulated glucose uptake”; with primary human adipocytes (then 100 nM insulin 20 min) it was “enhanced insulin-stimulated glucose uptake”; in the experiment on rat L6 myoblast cells (50 μM for 3 hr, then 100 nM insulin 20 min), “enhances insulin-stimulated glucose uptake”. Moreover, in the experiment on primary human adipocytes (absence of insulin vs 100 nM insulin), the “level of stimulated glucose uptake compared with insulin” value is “comparable to the level of insulin-stimulated glucose uptake”. In addition, in the experiment on rat L6 myoblast cells (50 μM for various times), the “time to stimulation of glucose uptake” value was at most 20 min. Moreover, the figures for the “glucose uptake compared with insulin” value (in the experiment with rat L6 myoblast cells (setting [5]); in experiment [3] (setting [5])) were “greater glucose uptake in rat L6 myoblast than did insulin” and “more effectively than insulin”, respectively. For the same compound, in experiment [3] (50 μM for various time periods), the “time course of glucose uptake” value is recorded as “rapid stimulation of glucose uptake”. Besides, the “agonist of RUP43 (identification)” value on endogenous human RUP43 [4] (melanophore technology) is “agonist of endogenous human RUP43”. For the same compound, on endogenous human RUP43 [4] (melanophores transfected with endogenous human RUP43, 100 uM-51.2 pM, one hour), the pEC50 was 6.67. The Curve height entry on endogenous human RUP43 [4] (percent control response vs positive control wells (200) and negative control wells (100)) is listed as “approximately 92 % of control”.
